Experimental data reported in US11396643B2, “Compositions comprising bacterial strains and use thereof in controlling pathogenic microorganisms” (Better Air International Limited, priority 2018, dated 2022).

Tests used:
Assay in all cases: Agar well diffusion antifungal assay
Type in all cases: cell-based
Conditions in all cases: PDA plates, 25° C. 72 h
[1] = system: Alternaria alternata (Fries) Keissler (ATCC MYA-4642)
Method: (§1) Brain Heart Infusion (BHI) Agar was used for the antagonism against pathogenic microorganisms while the Potato Dextrose Agar (PDA) was used for evaluation against molds. […] Molds were prepared using PDA at 25° C. with 85% HR for 7 days. […] The same amount of mold spore suspension was inoculated on PDA.

[2] = system: Cladosporium sphaerospermum Penzig (ATCC MYA-4645)
Method: as §1

[3] = system: Penicillium chrysogenum Thom (ATCC MYA-4644)
Method: as §1

## OO [Hydrogen peroxide 10%, Hydrogen peroxide]
[1]
  Inhibition zone, Alternaria alternata (Fries) Keissler (ATCC MYA-4642): 8 mm
[2]
  Inhibition zone, Cladosporium sphaerospermum Penzig (ATCC MYA-4645): 12 mm
[3]
  Inhibition zone, Penicillium chrysogenum Thom (ATCC MYA-4644): 10 mm
